According to patent publication US20220274947A1, “NOVEL HETEROARYL-TRIAZOLE COMPOUNDS AS PESTICIDES” (Bayer Aktiengesellschaft, priority 2019, published 2022):

Key:
Type in all cases: in vivo
Spodoptera frugiperda = Spodoptera frugiperda spray test; details: in Zea mays, 168 h, read-out: activity (mortality)
Protocol: Spodoptera Fruaiperda—Spray Test
Solvent: 78.0 parts by weight acetone • 1.5 parts by weight dimethylformamide Emulsifier: alkylarylpolyglycol ether
To produce a suitable preparation of active compound, 1 part by weight of active compound is mixed with the stated amount of solvents and is diluted with water, containing an emulsifier concentration of 1000 ppm, to the desired concentration. Further test concentrations are prepared by dilution with emulsifier containing water.
Maize (Zea mays) leaf sections are sprayed with a preparation of the active ingredient of the desired concentration. Once dry, the leaf sections are infested with fall armyworm larvae (Spodoptera frugiperda).
After 7 days mortality in % is determined. 100% means all caterpillars have been killed and 0% means none of the caterpillars have been killed.

Rhipicephalus microplus [1] = assay: Rhipicephalus (Boophilus) microplus in-vitro contact test, larval cattle tick, strain Parkhurst (BOOPMI Cont); details: application rate 5 μg/cm^2 (=500 g/ha), tick larvae, after 48 hours, read-out: activity (efficacy: 100% means all larvae are dead or moribund)
Protocol: Rhipicephalus (Boophilus) Microplus—In-Vitro Contact Tests Larval Cattle Tick (Strain Parkhurst, Resistant Against Synthetic Pyrethroids) (BOOPMI Cont)
9 mg compound is solved in 1 mL acetone and diluted with acetone to the desired concentration. 250 μL of the test solution is filled in 25 mL glass test tubes and homogeneously distributed on the inner walls by rotation and tilting on a shaking device (2 h at 30 rpm). With a compound concentration of 900 ppm, an inner surface of 44.7 cm^2 and a homogeneous distribution, a dose of 5 μg/cm^2 is achieved.
After the solvent has evaporated, each test tube is filled with 20-50 cattle tick larvae (Rhipicephalus microplus), closed with a perforated lid and incubated in a horizontal position at 85% relative humidity and 27° C. in an incubator. After 48 hours efficacy is determined. The larvae are patted on the ground of the tubes and negative geotactic behavior is recorded.
An efficacy of 100% means all larvae are dead or moribund; 0% means no larvae are dead or moribund.

Diabrotica balteata = Diabrotica balteata spray test; details: 168 h, wheat seeds, larvae, after 7 days, read-out: activity (efficacy: 100% means all seedlings have grown up like in the untreated, uninfected control); for pest or weed control at 32 µg/disc, 100 g/ha: application rate 100 g/ha (=32 μg/well)
Protocol: Diabrotica balteata—Spray Test Solvent: 78.0 parts by weight of acetone • • 1.5 parts by weight of dimethylformamide Emulsifier: alkylarylpolyglycol ether
To produce a suitable preparation of active compound, 1 part by weight of active compound is mixed with the stated amount of solvent, and the concentrate is diluted with water, containing an emulsifier concentration of 1000 ppm, to the desired concentration. Further test concentrations are prepared by dilution with emulsifier containing water.
Soaked wheat seeds (Triticum aestivum) are placed in a multiple well plate filled with agar and some water and are incubated for 1 day to germinate (5 seeds per well). The germinated wheat seeds are sprayed with a test solution containing the desired concentration of the active ingredient. Afterwards each unit is infected with 10-20 larvae of the banded cucumber beetle (Diabrotica balteata).
After 7 days efficacy in % is determined. 100% means all the seedlings have grown up like in the untreated, uninfected control; 0% means none of the seedlings have grown.

Ctenocephalides felis = Ctenocephalides felis oral test (CTECFE Oral); details: 48 h, read-out: activity (mortality)
Protocol: Ctenocephalides felis—Oral Test (CTECFE Oral) Solvent: dimethyl sulfoxide
To produce a suitable preparation of active compound, 10 mg of active compound are dissolved in 0.5 mL solvent, and the concentrate is diluted with cattle blood to the desired concentration.
Approximately 20 adult unfed cat fleas (Ctenocephalides felis) are placed in flea chambers. The blood chamber, sealed with parafilm on the bottom, are filled with cattle blood supplied with compound solution and placed on the gauze covered top of the flea chamber, so that the fleas are able to suck the blood. The blood chamber is heated to 37° C. whereas the flea chamber is kept at room temperature.
After 2 days mortality in % is determined. 100% means all the fleas have been killed; 0% means none of the fleas have been killed.

Rhipicephalus microplus [2] = assay: Rhipicephalus (Boophilus) microplus injection test (BOOPMI Inj); details: 168 h, injection into adult engorged female ticks, egg deposition after 7 days, read-out: activity (efficacy: 100% means all eggs are infertile); for pest or weed control at 0.004 mg: application rate 4 μg/tick; for pest or weed control at 0.02 mg: application rate 20 μg/tick
Protocol: Rhipicephalus (Boophilus) Microplus—Injection Test (BOOPMI Inj)
Solvent: dimethyl sulfoxide
To produce a suitable preparation of active compound, 10 mg of active compound are dissolved in 0.5 mL solvent, and the concentrate is diluted with solvent to the desired concentration.
Five adult engorged female ticks (Rhipicephalus microplus) are injected with 1 μL compound solution into the abdomen. The ticks are transferred into replica plates and incubated in a climate chamber.
After 7 days egg deposition of fertile eggs is monitored. Eggs where fertility is not visible are stored in a climate chamber till hatching after about 42 days. An efficacy of 100% means all eggs are infertile; 0% means all eggs are fertile.

Myzus persicae = Myzus persicae oral test; details: 120 h, read-out: activity (mortality)
Protocol: Myzus persicae—Oral Test Solvent: 100 parts by weight acetone
To produce a suitable preparation of active compound, 1 part by weight of active compound is mixed with the stated amount of solvent, and the concentrate is diluted with water to the desired concentration.
50 μL compound solution is filled in microtiter plates and 150 μL IPL41 insect medium (33%+15% sugar) is added to obtain a total volume of 200 μL per well. Afterwards the plates are sealed with parafilm through which a mixed population of the green peach aphid (Myzus persicae) can suck on the compound preparation.
After 5 days mortality in % is determined. 100% means all aphids have been killed and 0% means none of the aphids have been killed.

Rhipicephalus sanguineus = Rhipicephalus sanguineus in-vitro contact test, adult brown dog ticks (RHIPSA Cont); details: 48 h, after 48 hours, read-out: activity (efficacy: 100% means all ticks are dead or moribund); for pest or weed control at 1 µg/cm2, 100 g/ha: application rate 1 μg/cm^2 (=100 g/ha); for pest or weed control at 5 µg/cm2, 500 g/ha: application rate 5 μg/cm^2 (=500 g/ha)
Protocol: Rhipicephalus sanguineus-In-Vitro Contact Tests with Adult Brown Dog Ticks ([…] Cont) 9 mg compound is solved in 1 mL acetone and diluted with acetone to the desired concentration. 250 μL of the test solution is filled in 25 mL glass test tubes and homogeneously distributed on the inner walls by rotation and tilting on a shaking device (2 h at 30 rpm). […] After 48 hours efficacy is determined. The ticks are patted on the ground of the tubes and are incubated on a heating plate at 45-50° C. for at most 5 minutes. Immotile or uncoordinated moving ticks, which are not able to escape the heat by climbing upwards, are marked as dead or moribund.

[3] = test system: Aedes aegypti strain MONHEIM; assay: Aedes aegypti test (AEDSAE surface treatment & contact assay); details: exposure 30 minutes, 24 hours after contact, read-out: efficacy (mortality); for mortality at 20 mg/m2: surface concentration 20 mg/m^2, glazed tile; for mortality at 4 mg/m2: surface concentration 4 mg/m^2, glazed tile
Protocol: Aedes aegypti Test (AEDSAE Surface Treatment & Contact Assay) Solvent: Aceton+2000 ppm rapeseed oil methyl ester (RME)
In order to produce a sufficient, active ingredient containing solution it is necessary to solve the test compound in the solvent-mix (acetone at 2 mg/ml/RME 2000 ppm). This solution is pipetted onto a glazed tile and after evaporation of the acetone, adult mosquitoes of the species Aedes aegypti strain MONHEIM are placed onto the dried surface. The exposure time is 30 minutes. Mortality in percent (%) is determined 24 hours after contact of the insects to the treated surface. 100% mortality means that all tested insects are dead, whereas 0% means that no insect died.

SMILES	mortality at 100 g/ha (Spodoptera frugiperda) [%]	pest or weed control at 5 µg/cm2 (Rhipicephalus microplus [1]) [%]	pest or weed control at 32 µg/disc, 100 g/ha (Diabrotica balteata) [%]	mortality at 100 ppm (Ctenocephalides felis) [%]	pest or weed control at 0.004 mg (Rhipicephalus microplus [2]) [%]	mortality at 4 ppm (Myzus persicae) [%]	mortality at 500 g/ha (Spodoptera frugiperda) [%]	pest or weed control at 160 µg/disc, 500 g/ha (Diabrotica balteata; application rate 500 g/ha (=160 μg/well)) [%]	pest or weed control at 0.02 mg (Rhipicephalus microplus [2]) [%]	pest or weed control at 1 µg/cm2, 100 g/ha (Rhipicephalus sanguineus) [%]	pest or weed control at 5 µg/cm2, 500 g/ha (Rhipicephalus sanguineus) [%]	mortality at 20 mg/m2 [3] [%]	mortality at 4 mg/m2 [3] [%]
CC(NC(=O)c1cc(C(F)(F)F)cc(C(F)(F)F)c1)c1nc(Br)nn1-c1ccc(C#N)cn1 (racemic) [I-48, 3,5-di(trifluoromethyl)-N-{1-[3-bromo-1-(3-cyano-pyridin-6-yl)-1H-1,2,4-triazol-5-yl]ethyl}-benzamide]	100	100	100	100	100	90							
C[C@H](NC(=O)c1cc(Cl)cc(Cl)c1)c1nc(C2CC2)nn1-c1ccc(C#N)cn1 [I-5]	100	100	100	100	100		100	100	100				
CC(C)c1nc([C@H](C)NC(=O)c2cc(Br)cc(C(F)(F)F)c2)n(-c2ccc(C#N)cn2)n1 [I-21]	100	100	80	100	100				100	100	100		
CC(C)c1nc([C@H](C)NC(=O)c2cc(Br)cc(C#N)c2)n(-c2ccc(C#N)cn2)n1 [I-25]	100	100	100	100	100				100	100	80		
CC(C)c1nc([C@H](C)NC(=O)c2cncc(Br)c2)n(-c2ccc(C#N)cn2)n1 [I-27]		90		100	100				100	100	100	80 to 100	
C[C@H](NC(=O)c1cc(Br)cc(Br)c1)c1nc(C2CC2)nn1-c1ccc(C#N)cn1 [I-36]	100	100	100	90	100					100			
C[C@H](NC(=O)c1cc(Br)cc(OC(F)(F)F)c1)c1nc(C2CC2)nn1-c1ccc(C#N)cn1 [I-41]	100	100		100	100								
Cc1nc([C@H](C)NC(=O)c2cncc(Br)c2)n(-c2ccc(C#N)cn2)n1 [II-49]		100	100	100	100				100		100		80 to 100
CC[C@H](NC(=O)c1cc(Cl)cc(C(F)(F)F)c1)c1nc(C)nn1-c1ncc(OC(F)F)cn1 [II-60]		100		100	100				100				
CC[C@H](NC(=O)c1cc(Cl)cc(C(F)(F)F)c1)c1ncnn1-c1ncc(OC(F)F)cn1 [II-64]	100	100	100	100	100				100		80	80 to 100	
C[C@H](NC(=O)c1cc(Br)c(F)c(Br)c1)c1ncnn1-c1ccc(C#N)cn1 [II-82]	100	100	80	100	100					80	80	80 to 100	80 to 100
